Measurements: the supplement of paper PMC10307832

Assays:
Test in all cases: relative viability (nuclei count vs DMSO), 5 days (fraction); higher = more cells survive
[1] = compound: CCC1=CN=CN=C1N2CCN(CC2)CC3=NC4=C(N3)C=C(C=C4)C(F)(F)F + Nc1nc2[nH]cc(CCc3ccc(C(=O)N[C@@H](CCC(=O)O)C(=O)O)cc3)c2c(=O)[nH]1 [Pemetrexed] (partner 0.2 µM)
Summary of the method: (§1)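 Relative viability is defined as nuclei in treated wells over nuclei in vehicle wells. Duplicate plates were run and medians reported. Lung cancer cell lines in 1536-well plates were dosed by pin tool one day after seeding, with one drug or with a fixed anchor-drug dose plus five library-drug doses (not always all listed) in √10 steps, and nuclei were counted after 5 days.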

[2] = compound: CCn1c(-c2nonc2N)nc2cnc(Oc3cccc(NC(=O)c4ccc(OCCN5CCOCC5)cc4)c3)cc21 + CC(C)C[C@H](NC(=O)[C@H](Cc1ccccc1)NC(=O)c1cnccn1)B(O)O [Bortezomib] (partner 0.002 µM)
Summary of the method: as §1

[3] = compound: CCn1c(-c2nonc2N)nc2cnc(Oc3cccc(NC(=O)c4ccc(OCCN5CCOCC5)cc4)c3)cc21 + CCNC(=O)c1noc(-c2cc(C(C)C)c(O)cc2O)c1-c1ccc(CN2CCOCC2)cc1 [Luminespib] (partner 0.01 µM)
Summary of the method: as §1

Mirin + Luminespib = compound: N=C1NC(=O)/C(=C/c2ccc(O)cc2)S1 [Mirin] + CCNC(=O)c1noc(-c2cc(C(C)C)c(O)cc2O)c1-c1ccc(CN2CCOCC2)cc1 [Luminespib] (partner 0.01 µM)
Summary of the method: as §1

Cell Line | relative viability ([1]; first compound 0.04 µM) | relative viability ([1]; first compound 0.1265 µM) | relative viability ([1]; first compound 0.4 µM) | relative viability ([1]; first compound 1.265 µM) | relative viability ([1]; first compound 4 µM) | relative viability ([2]; first compound 0.1265 µM) | relative viability ([2]; first compound 0.4 µM) | relative viability ([2]; first compound 1.265 µM) | relative viability ([2]; first compound 4 µM) | relative viability ([3]; first compound 0.04 µM) | relative viability ([3]; first compound 0.1265 µM) | relative viability ([3]; first compound 0.4 µM) | relative viability ([3]; first compound 1.265 µM) | relative viability ([3]; first compound 4 µM) | relative viability (Mirin + Luminespib; first compound 0.25 µM) | relative viability (Mirin + Luminespib; first compound 0.7906 µM) | relative viability (Mirin + Luminespib; first compound 2.5 µM) | relative viability (Mirin + Luminespib; first compound 7.906 µM) | relative viability (Mirin + Luminespib; first compound 25 µM) | relative viability ([2]; first compound 0.04 µM)
NCI-H2087 | 0.634 | 0.732 | 0.72 | 0.632 | 0.55 | 0.591 | 0.778 | 0.473 | 0.459 | 0.161 | 0.143 | 0.181 | 0.153 | 0.143 | 0.184 | 0.135 | 0.169 | 0.161 | 0.158 | –
NCI-H2126 | 0.75 | 0.695 | 0.725 | 0.657 | 0.709 | 1.13 | 0.918 | 1.08 | 1.08 | 1.06 | 0.903 | 0.776 | – | 0.635 | 0.86 | 0.881 | 0.934 | 0.9 | 0.898 | 1.14
NCI-H2228 | – | 0.363 | 0.335 | 0.303 | 0.294 | 0.897 | 0.921 | 0.591 | 0.839 | 0.118 | 0.109 | 0.133 | 0.162 | 0.124 | 0.144 | 0.166 | 0.159 | 0.129 | 0.114 | 1.12
NCI-H2347 | 0.422 | 0.408 | 0.434 | 0.373 | 0.442 | 0.959 | 0.792 | 0.49 | 0.649 | 0.399 | 0.451 | 0.599 | 0.283 | 0.302 | 0.33 | 0.295 | 0.372 | 0.409 | 0.575 | 1.1
NCI-H2405 | 1.02 | 1.05 | 0.992 | – | 1.15 | 0.744 | 0.348 | 0.277 | 0.973 | 0.735 | 0.49 | 0.219 | 0.217 | 0.214 | 0.624 | 0.586 | 0.664 | 0.702 | 0.649 | 1.05
NCI-H3122 | 0.21 | 0.184 | 0.202 | 0.203 | 0.215 | 1.01 | 0.93 | 0.691 | 0.738 | 0.0608 | 0.0978 | 0.0882 | 0.0945 | 0.0955 | 0.0805 | 0.0865 | 0.0952 | 0.0621 | 0.0807 | 1.05
PC-3 [JPC-3] | – | 0.983 | 1.07 | 0.959 | 1.09 | 0.867 | 0.727 | 0.772 | 0.63 | 0.849 | 0.73 | 0.718 | 0.726 | 0.626 | 0.664 | 0.732 | 0.758 | 0.651 | 0.787 | 0.958
PC-14 | 0.135 | 0.153 | 0.141 | 0.13 | 0.135 | 0.857 | 0.905 | 0.776 | 0.729 | 0.15 | 0.136 | 0.154 | 0.154 | 0.173 | 0.177 | 0.142 | 0.191 | 0.187 | 0.144 | 1.04
RERF-LC-KJ | 0.393 | 0.455 | 0.459 | 0.441 | 0.476 | 1.31 | 1.01 | 0.731 | 0.754 | 1.35 | 1.21 | 1.04 | 0.795 | 0.64 | 1.25 | 1.25 | 1.36 | 1.2 | 1.18 | 1.32
SK-LU-1 | 0.892 | 0.992 | 0.958 | 0.985 | 0.998 | 0.921 | 0.608 | – | 0.504 | 0.231 | 0.155 | 0.189 | 0.159 | 0.172 | 0.193 | 0.188 | 0.228 | 0.163 | 0.197 | 1.5
SW 1573 | 0.884 | 0.947 | 0.83 | 0.747 | 0.885 | 1.04 | 0.871 | 0.575 | 0.41 | 0.251 | 0.207 | 0.123 | 0.196 | 0.137 | 0.228 | 0.272 | 0.247 | 0.201 | 0.205 | 0.984
